These results are taken from ChEMBL document CHEMBL1201862, “PubChem BioAssay data set” (2004).

The target in data set [1] is T1, Voltage-gated N-type calcium channel alpha-1B subunit/Amyloid beta A4 precursor protein-binding family A member 1 (Homo sapiens, UniProt Q00975+Q02410). Type of data set: protein assay.
The target of data set [2] is T1, Voltage-gated N-type calcium channel alpha-1B subunit/Amyloid beta A4 precursor protein-binding family A member 1. Type of data set: protein assay. This is another data set of the same source.
Data set [3] addresses Induced myeloid leukemia cell differentiation protein Mcl-1 (Homo sapiens, UniProt Q07820). It is filed as functional.
The nature of data set [4]: Trypanosoma cruzi growth suppression in host cells – NIH3T3 host cells, beta-gal luminescence, confirmation (AID 2044).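 Further: intracellular parasites grown in NIH/3T3 mouse fibroblasts as host cells; luminescent beta-galactosidase reporter signal from transgenic T. cruzi replicating inside host cells; inhibitors lower the luminescence signal.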 Type of data set: functional, cell-based.
Data set [5] can be described thus: NIH3T3 cell viability loss – ATP luminescence, mouse fibroblasts, counter-screen, dose response (AID 2010).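 Further: cells exposed to compound for about 90 hours before reading.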 Type of data set: functional, cell-based. For orientation: A counterscreen serves to expose hits that act by an unwanted route or on another target.
The test system of another data set is Escherichia coli. Briefly: microbe, parasite or virus in culture.
For a further data set, the target named is Cytochrome P450 2C9 (Homo sapiens, UniProt P11712).
Cytochrome P450 2C9, sequence (P11712 whole entry): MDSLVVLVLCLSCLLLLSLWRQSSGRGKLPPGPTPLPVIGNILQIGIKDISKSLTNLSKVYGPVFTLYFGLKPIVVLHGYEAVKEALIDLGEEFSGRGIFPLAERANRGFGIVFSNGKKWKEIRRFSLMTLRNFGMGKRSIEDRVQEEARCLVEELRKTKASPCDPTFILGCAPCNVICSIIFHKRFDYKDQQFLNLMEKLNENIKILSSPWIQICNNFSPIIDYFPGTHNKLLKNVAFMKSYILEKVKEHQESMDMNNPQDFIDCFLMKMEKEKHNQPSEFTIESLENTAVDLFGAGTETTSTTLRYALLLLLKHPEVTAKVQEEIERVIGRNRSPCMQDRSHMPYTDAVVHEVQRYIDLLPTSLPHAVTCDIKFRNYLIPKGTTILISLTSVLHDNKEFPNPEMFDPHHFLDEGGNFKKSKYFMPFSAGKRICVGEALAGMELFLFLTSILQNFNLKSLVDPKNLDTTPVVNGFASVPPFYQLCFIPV
For a further data set, the target named is Cytochrome P450 2D6 (Homo sapiens, UniProt P10635).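 Further: CYP2D6 member of a cytochrome P450 panel assay.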
Cytochrome P450 2D6, sequence (P10635 whole entry): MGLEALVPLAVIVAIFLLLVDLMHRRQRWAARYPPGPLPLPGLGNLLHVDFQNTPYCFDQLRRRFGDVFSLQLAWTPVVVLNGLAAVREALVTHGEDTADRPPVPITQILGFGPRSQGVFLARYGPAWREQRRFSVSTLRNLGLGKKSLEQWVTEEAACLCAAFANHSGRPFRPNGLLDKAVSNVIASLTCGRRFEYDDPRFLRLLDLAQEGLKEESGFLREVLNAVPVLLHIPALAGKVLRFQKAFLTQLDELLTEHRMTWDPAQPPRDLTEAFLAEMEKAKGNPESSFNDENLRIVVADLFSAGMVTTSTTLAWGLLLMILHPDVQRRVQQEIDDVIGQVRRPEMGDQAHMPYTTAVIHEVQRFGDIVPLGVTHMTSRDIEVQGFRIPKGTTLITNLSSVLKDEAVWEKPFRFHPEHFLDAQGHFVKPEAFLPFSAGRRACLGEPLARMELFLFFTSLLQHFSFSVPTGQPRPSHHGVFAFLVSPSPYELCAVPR
A short description of data set [6]: viability of uninfected HEp-2 cells – cell-based, HTS, cytotoxicity control for RSV inhibitor project, dose response (AID 2410). To be noted: human respiratory syncytial virus. Type of data set: functional.
The target of a further data set is Trypsin (Sus scrofa, UniProt P00761). The data set can be described thus: trypsin protease activity blockade – biochemical, quenched peptide fluorescence, cherry-pick, selectivity assay for Rce1 protease inhibitor project, dose response (AID 488789).
Trypsin, sequence (P00761 whole entry): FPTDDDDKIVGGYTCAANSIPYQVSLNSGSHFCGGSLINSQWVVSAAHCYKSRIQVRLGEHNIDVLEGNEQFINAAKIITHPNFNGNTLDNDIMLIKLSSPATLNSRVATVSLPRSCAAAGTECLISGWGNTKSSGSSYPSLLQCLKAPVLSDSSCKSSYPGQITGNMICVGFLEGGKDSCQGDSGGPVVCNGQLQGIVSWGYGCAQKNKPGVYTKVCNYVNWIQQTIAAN
In data set [7] the target is T2, CAAX prenyl protease 2 (Homo sapiens, UniProt Q9Y256).
T2 sequence (Q9Y256 whole entry): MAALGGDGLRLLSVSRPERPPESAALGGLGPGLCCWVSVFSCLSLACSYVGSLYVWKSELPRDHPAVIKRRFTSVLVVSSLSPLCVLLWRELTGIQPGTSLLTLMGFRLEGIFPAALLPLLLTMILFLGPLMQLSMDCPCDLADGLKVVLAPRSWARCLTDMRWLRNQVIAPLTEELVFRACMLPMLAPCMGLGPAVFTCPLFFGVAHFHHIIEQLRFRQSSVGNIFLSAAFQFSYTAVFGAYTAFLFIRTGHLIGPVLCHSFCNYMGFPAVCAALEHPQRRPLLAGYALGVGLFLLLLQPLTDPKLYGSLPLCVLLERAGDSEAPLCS
Briefly: inhibition of Ras-converting CAAX protease Rce1 – biochemical, yeast membranes, quenched-peptide fluorescence, cherry-pick, dose response (AID 588849).

Data set [8] relates to Streptococcus sp. 'group A'. Briefly: Streptococcus pyogenes SK(-)GAS viability under kanamycin – luminescence, BacTiterGlo, confirmation, counter-screen for streptokinase expression inhibitor project, dose response (AID 1900). It is filed as functional, organism-based.
Another data set has as its system Streptococcus. The data set can be described thus: GAS UMAA2166 growth inhibition – luminescence, BacTiterGlo, counter-screen for streptokinase expression inhibitor project, dose response (AID 1915).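 Further: potency for reduction of bacterial viability or growth.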 Type of data set: functional, organism-based.
The target of another data set is T3, Streptokinase A (Streptococcus pyogenes serotype M1, UniProt P10520).
T3 sequence (P10520 whole entry): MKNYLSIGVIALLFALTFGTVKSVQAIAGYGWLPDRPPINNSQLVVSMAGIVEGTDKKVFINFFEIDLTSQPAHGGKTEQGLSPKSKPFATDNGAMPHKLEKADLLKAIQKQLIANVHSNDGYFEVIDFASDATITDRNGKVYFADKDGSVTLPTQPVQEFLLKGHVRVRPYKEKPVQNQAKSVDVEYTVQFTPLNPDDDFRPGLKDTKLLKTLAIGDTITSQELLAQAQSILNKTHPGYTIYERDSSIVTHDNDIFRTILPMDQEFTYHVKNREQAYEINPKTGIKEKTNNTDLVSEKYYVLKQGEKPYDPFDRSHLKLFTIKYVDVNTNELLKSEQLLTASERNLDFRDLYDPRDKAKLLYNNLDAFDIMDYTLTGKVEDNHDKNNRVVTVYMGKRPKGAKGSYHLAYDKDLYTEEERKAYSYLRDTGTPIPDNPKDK
Briefly: viability-normalized secreted streptokinase activity reduction – plasminogen activation absorbance, OD405, dose response (AID 1914).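 Further: secreted streptokinase activity via plasminogen activation per viability signal from cell pellet.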 It is filed as functional, Streptococcus pyogenes M1 GAS.

Data set [9] deals with T4, CAAX prenyl protease 2 (Saccharomyces cerevisiae S288c, UniProt Q03530).
T4 sequence (Q03530 whole entry): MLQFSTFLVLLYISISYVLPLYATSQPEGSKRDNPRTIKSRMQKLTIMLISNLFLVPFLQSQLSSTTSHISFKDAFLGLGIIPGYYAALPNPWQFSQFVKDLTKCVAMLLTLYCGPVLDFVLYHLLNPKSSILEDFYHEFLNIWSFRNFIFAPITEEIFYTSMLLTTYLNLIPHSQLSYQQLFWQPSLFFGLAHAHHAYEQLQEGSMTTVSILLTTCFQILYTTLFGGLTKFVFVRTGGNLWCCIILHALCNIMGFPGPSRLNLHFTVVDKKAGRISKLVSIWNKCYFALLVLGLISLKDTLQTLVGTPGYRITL
Type of data set: biochemical.

A short description of data set [10]: blockade of melanocortin 4 receptor signaling – cell-based, plate reader, cherry pick, counter-screen for LGR2 antagonist project, dose response (AID 743444).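 Further: transfected HEK 293 cells stimulated with alpha-MSH peptide; potency of inhibitors of the alpha-MSH evoked signal.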 It is filed as functional.
Data set [11] has as its system HEK293. The data set can be described thus: inhibition of NOD1-driven NF-kB reporter – cell-based, luminescence, uHTS, primary screen (AID 1578). Particulars: Homo sapiens. It is filed as functional.
Data set [12] is described as follows: luciferase reporter signal suppression in cells – H4 neuroglioma cells, luminescence, dose response (AID 1990). It is filed as functional, cell-based. A general note: Reporter assays use an easily measured gene product as a stand-in for the process of interest.
Data set [13] concerns HEK293. Briefly: cells. Type of data set: functional, cell-based. Particulars: Homo sapiens.
Data set [14] in a line: blockers of bursicon-stimulated LGR2 cAMP reporter – cell-based, HEK293, CRE-luciferase reporter, cherry pick, set 2, dose response (AID 743343).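 Further: transfected cells were stimulated with diluted bursicon conditioned medium after compound addition.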 It is filed as functional.
Data set [15] is described as follows: Luminescence Cell-Based Dose Response HTS to Identify Inhibitors of 5'UTR Stem-Loop Driven Prion Protein mRNA Translation in H4 Neuroglioblastoma Cells. [Related pubchem assays: 1827 (Project Summary), 1813 (Primary HTS)]. It is filed as functional.
For data set [16], the system named is HEK293. The data set can be described thus: NOD2 signaling inhibitors in MDP-stimulated cells, cell-based, uHTS, luminescence (AID 2001). It is filed as functional. To be noted: Homo sapiens.
Data set [17] relates to HEK293. Briefly: cells. Type of data set: functional, cell-based. Particulars: Homo sapiens. This is another data set of the same source.
Data set [18] can be described thus: alpha-synuclein stem-loop luciferase translation blockers – H4 neuroglioma cells, luminescence, confirmation (AID 1988). Type of data set: functional, cell-based.
For data set [19], the system named is HEK293. The data set can be described thus: EBV LMP1 TES2 canonical NF-kB signalling blockers – cell-based, HEK293, luciferase, cherry-pick, dose response (AID 588343). Type of data set: functional. Particulars: Homo sapiens.
The target of data set [20] is T5, Nuclear receptor subfamily 0 group B member 1 (Homo sapiens, UniProt P51843).
T5 sequence (P51843 whole entry): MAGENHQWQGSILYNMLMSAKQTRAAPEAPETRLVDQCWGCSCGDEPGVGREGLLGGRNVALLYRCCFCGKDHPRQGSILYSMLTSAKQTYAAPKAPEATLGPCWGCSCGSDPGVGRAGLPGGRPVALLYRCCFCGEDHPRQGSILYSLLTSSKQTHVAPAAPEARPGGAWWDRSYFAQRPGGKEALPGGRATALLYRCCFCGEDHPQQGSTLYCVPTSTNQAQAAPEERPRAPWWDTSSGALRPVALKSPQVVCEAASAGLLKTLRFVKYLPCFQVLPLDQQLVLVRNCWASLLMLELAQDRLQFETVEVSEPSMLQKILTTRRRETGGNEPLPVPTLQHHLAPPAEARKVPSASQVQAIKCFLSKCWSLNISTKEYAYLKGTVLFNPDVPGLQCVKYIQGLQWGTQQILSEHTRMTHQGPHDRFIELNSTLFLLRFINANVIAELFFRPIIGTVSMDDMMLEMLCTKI
Briefly: Luminescence-based cell-based high throughput dose response assay for inhibitors of the orphan nuclear receptor subfamily 0, group B, member 1 (DAX1; NR0B1). [Related pubchem assays (depositor defined):AID504766, AID504790]. Type of data set: functional.

In data set [21] the test system is HEK293. The data set can be described thus: cells. To be noted: Homo sapiens. Type of data set: functional, cell-based. The source holds these as a separate data set.
Another data set has as its target Nonstructural protein 1 (Influenza A virus, UniProt Q194T2). It is filed as functional, Influenza A virus (A/California/07/2009(H1N1)).

Active and inactive are the calls of the source.

T1 sequence (Q00975 whole entry): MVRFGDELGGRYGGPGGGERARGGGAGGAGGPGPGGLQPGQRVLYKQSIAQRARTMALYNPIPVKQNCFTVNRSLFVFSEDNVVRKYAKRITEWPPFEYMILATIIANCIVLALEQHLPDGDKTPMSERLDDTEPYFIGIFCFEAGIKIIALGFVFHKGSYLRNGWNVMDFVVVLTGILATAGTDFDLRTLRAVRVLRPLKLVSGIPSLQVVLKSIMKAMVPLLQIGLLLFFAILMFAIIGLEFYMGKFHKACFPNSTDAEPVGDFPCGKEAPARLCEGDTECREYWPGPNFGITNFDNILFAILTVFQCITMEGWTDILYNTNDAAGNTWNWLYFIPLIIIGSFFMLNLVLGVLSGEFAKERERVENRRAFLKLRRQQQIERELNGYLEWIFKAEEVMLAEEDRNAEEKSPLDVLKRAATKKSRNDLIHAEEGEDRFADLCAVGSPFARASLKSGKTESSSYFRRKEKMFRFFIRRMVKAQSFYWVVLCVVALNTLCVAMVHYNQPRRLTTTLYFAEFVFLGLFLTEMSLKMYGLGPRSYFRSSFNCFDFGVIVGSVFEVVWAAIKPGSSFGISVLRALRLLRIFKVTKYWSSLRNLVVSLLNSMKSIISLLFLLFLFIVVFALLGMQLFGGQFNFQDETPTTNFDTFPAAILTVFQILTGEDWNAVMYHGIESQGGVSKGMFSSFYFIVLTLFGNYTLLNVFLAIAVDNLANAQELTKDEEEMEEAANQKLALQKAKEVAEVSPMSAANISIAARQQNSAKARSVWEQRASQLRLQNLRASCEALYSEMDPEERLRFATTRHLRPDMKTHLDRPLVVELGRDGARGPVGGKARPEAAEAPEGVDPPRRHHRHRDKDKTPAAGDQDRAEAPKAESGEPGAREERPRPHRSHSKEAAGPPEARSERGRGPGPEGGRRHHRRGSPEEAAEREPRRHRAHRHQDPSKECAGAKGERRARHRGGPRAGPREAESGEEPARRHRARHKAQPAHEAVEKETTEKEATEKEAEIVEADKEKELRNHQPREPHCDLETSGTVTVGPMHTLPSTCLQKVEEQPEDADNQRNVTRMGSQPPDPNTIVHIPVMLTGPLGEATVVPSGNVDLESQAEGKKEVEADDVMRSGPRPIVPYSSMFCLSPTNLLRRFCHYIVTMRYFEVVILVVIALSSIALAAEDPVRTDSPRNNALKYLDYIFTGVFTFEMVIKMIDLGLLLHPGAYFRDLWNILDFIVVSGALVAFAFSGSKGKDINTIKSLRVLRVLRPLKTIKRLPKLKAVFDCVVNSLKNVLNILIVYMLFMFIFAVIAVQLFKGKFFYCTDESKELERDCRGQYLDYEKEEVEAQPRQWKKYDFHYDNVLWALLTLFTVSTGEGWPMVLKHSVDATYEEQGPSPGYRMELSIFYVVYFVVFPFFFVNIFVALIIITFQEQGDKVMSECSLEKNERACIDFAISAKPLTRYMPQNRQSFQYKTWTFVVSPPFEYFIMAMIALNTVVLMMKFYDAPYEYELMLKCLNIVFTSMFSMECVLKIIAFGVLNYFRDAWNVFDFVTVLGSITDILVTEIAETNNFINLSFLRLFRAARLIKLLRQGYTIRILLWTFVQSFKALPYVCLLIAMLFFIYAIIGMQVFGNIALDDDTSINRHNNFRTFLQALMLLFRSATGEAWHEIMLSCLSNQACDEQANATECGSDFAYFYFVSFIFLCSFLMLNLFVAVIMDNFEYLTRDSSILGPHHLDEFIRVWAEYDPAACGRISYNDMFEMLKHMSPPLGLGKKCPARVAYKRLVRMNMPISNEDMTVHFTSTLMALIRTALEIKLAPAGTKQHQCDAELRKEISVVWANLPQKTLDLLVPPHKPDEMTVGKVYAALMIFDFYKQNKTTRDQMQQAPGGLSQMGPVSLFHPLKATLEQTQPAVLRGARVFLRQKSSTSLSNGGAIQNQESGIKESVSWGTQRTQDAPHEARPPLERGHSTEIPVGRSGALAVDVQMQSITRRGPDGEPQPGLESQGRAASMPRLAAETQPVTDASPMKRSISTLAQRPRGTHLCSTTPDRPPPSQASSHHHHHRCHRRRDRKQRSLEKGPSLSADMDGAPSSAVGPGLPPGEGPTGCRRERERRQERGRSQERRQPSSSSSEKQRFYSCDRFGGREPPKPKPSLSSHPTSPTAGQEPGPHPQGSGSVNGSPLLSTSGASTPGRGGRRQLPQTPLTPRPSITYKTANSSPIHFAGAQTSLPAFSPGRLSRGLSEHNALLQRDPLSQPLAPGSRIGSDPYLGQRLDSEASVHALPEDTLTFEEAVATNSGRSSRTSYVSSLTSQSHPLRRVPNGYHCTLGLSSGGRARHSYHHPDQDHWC
T1 sequence (Q02410 whole entry): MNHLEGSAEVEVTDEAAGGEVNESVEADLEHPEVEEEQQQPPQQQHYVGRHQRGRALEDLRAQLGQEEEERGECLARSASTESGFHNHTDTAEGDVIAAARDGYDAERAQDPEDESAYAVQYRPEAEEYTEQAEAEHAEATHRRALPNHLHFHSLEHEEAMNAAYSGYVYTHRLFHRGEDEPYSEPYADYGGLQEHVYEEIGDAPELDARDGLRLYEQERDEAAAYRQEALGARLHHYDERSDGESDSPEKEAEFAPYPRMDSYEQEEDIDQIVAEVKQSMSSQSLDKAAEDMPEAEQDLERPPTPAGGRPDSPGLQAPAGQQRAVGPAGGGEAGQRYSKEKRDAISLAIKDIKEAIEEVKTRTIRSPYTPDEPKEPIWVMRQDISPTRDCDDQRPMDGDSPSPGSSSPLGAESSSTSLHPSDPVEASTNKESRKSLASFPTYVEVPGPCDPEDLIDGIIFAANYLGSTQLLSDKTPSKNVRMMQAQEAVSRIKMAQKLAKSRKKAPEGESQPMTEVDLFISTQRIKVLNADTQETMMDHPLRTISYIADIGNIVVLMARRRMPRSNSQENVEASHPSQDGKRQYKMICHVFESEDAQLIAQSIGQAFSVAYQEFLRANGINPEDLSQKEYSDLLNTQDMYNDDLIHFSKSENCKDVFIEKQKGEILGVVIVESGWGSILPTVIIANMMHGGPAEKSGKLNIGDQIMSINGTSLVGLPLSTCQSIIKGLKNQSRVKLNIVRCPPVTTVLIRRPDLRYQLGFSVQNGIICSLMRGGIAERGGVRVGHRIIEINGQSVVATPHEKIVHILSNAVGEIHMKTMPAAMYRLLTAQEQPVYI
Nonstructural protein 1, sequence (Q194T2 whole entry): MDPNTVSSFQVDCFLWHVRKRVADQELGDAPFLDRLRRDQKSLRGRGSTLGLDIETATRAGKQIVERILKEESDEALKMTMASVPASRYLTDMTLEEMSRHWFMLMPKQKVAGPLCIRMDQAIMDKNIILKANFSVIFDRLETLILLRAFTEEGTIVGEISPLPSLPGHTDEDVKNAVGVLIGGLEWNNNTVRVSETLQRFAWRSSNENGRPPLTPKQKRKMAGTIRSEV
Induced myeloid leukemia cell differentiation protein Mcl-1, sequence (Q07820 whole entry): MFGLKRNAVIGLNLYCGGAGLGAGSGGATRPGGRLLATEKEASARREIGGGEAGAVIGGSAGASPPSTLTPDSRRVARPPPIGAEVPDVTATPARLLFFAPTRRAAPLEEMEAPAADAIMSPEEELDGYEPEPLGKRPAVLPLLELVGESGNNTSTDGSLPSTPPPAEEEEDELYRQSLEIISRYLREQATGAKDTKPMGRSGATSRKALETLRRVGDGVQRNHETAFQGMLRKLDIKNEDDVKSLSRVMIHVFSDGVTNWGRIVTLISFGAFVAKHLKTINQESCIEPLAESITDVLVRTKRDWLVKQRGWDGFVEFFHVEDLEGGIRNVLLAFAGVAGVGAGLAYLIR

One may read the IC50 as the concentration at which inhibition is half-maximal. For `CC(=O)Nc1ccc(C2=NN=C(Nc3cccc(S(=O)(=O)N(C)C)c3)SC2)cc1`, the results for the IC50 in [1], in data set [2] and in [3] were > 50 µM (inactive), 3.56 µM (active) and 4.2 µM (active), respectively.
As usually defined, the EC50 is the concentration that produces a half-maximal response. The AC50 is the concentration giving half of the maximal activity seen. Turning to `Clc1ccc(C2[C@H]3CN(Cc4cccnc4)[C@H](c4ccccc4)C34CC2(c2ccccc2)C4)cn1` (some centres not stated), the concentration for a half-maximal effect (EC50) is 1.61 µM (active) in data set [4] and 9.94 µM (active) in data set [5]. Further, the AC50 in the data set on Escherichia coli was 34.8 µM (active).
As for `Cc1ccc(C)c(C(=O)C2=C(O)C(=O)N(Cc3cccnc3)C2c2cccnc2)c1` (configuration not stated), the AC50 was 3.16 µM (inconclusive) at Cytochrome P450 2C9 and “inconclusive” at Cytochrome P450 2D6.
For orientation: CC50 means the concentration giving 50% cytotoxicity. With `COc1cc(-c2c(C#N)c(N)nc3c2c(C)nn3-c2ccc(C)c(C)c2)cc(OC)c1OC`, the CC50 in data set [6] is 22.1 µM (active). Further, the AC50 at Trypsin was 16.1 µM (active); on CAAX prenyl protease 2 [7], 11.2 µM (active). Moreover, the results for the concentration giving a half-maximal response (EC50) (in data set [8]; with Streptococcus; on Streptokinase A) were 5.69 µM (active), 36.4 µM (active) and > 150 µM (not active), respectively. In “cells”, the concentration for half-maximal inhibition (IC50) is 31.8 µM (active).
Take `O=C(c1ccc(Cn2cnnn2)cc1)N1CCCC(Nc2ccc(F)cc2)C1` (configuration not stated): the AC50 on CAAX prenyl protease 2 [9] was 5.9 µM (active); at Trypsin, 5.79 µM (active); at CAAX prenyl protease 2 [7] it was 22.6 µM (active).
As for `O=C1OCCC1Sc1nnc(-c2ccc(Cl)cc2Cl)o1` (configuration not stated), the AC50 was 9.84 µM (active) in data set [10], 9.34 µM (active) in data set [14] and 7.18 µM (active) in the data set on HEK293 [19]. In addition, the EC50 in the data set with HEK293 [11] is 6.32 µM (active); in data set [12] it was 7.77 µM (active); in [15] it was 9.97 µM (active); in data set [18] it was 8.84 µM (active). The IC50 in the data set with HEK293 [13] was > 20 µM (inactive); with HEK293 [16], 13 µM (inactive); with HEK293 [17], 6.93 µM (active).
As to `Cc1ccnc2nc(C(=O)Nc3nc(-c4ccccn4)cs3)nn12`, the IC50 in [20] is > 67.5 µM (inactive); with HEK293 [21], 65.2 µM (inactive); at Nonstructural protein 1, 5.06 µM (active).
For `CNC(=O)OCC[N+](C)(C)C`, the AC50 result on Cytochrome P450 2D6 is listed as “inconclusive”.
